Reference: US20080318977A1, “Condensed Pyridines as Kinase Inhibitors” (Palau Pharma, S.A., priority 2004, published 2008)

What follows are compounds tested against T1, p38α (Homo sapiens, UniProt Q16539) (assay: Inhibition of p38α enzyme activity (IMAP fluorescence polarisation kinase assay)). Conditions: at 1 μM compound; ATP 20 μM; 2 h at RT.
T1 construct: GST-tagged fusion protein corresponding to full-length human p38α; purchased Upstate 14-251; host or cells: E. coli
Assay type: biochemical
Experimental: Inhibition of p38α Enzyme Activity:
Compound stocks in 100% DMSO are first diluted in DMSO to a concentration of 1×10^−3 up to 3.2×10^−8 M and then further diluted in kinase assay buffer (10 mM Tris-HCl, pH 7.2, 10 mM MgCl2, 0.01% tween 20, 0.05% NaN3, 1 mM dithiothreitol) to a concentration range of 4×10^−5 up to 1.3×10^−9 M. Of each compound solution 5 μL is transferred into a 384-wells black Optiplate (Packard, 6007279), followed by the addition of 5 μL of ATP (Boehringer, 519987), 5 μL of Fluorescein-labeled EGFR (Epidermal Growth Factor Receptor) peptide substrate and 5 μL of active p38 cc kinase (GST-tagged fusion protein corresponding to full-length human p38α; expressed in E. coli by Upstate, 14-251), all diluted in kinase assay buffer (see final concentrations in Table 1). The mixture is incubated for 2 h at room temperature (RT). The reaction is stopped by the addition of 60 μL of IMAP binding reagent, which has been diluted 400-fold in IMAP binding buffer (stock concentration 5 times diluted in Milli Q). After incubation for 30 min at RT, FP is measured on an Analyst™ multimode fluorescence plate reader (Molecular Devices) at excitation wavelength of 485 nm and emission wavelength of 530 nm (1 sec/well).
Data handling is performed as follows: percentage effects are calculated based on no-p38-enzyme-addition as the maximum inhibitory effect and with p38 enzyme addition as the minimum inhibitory effect. In each experiment, individual compound concentrations are tested in duplicate and percentage effect is calculated for each concentration.

T1 sequence (Q16539 whole entry, the tested form may be a part): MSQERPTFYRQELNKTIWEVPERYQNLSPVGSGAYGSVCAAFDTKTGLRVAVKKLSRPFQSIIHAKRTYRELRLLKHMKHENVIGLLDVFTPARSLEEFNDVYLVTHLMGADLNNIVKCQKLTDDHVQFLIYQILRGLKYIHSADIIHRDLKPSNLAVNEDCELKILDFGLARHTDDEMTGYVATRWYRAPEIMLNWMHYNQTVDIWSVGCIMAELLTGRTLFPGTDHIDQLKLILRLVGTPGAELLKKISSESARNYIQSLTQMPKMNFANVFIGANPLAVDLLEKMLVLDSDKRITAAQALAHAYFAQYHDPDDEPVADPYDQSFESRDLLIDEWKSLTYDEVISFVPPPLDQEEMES

| Structure (SMILES) | inhibition at 1 µM |
| --- | --- |
| COC(=O)c1n[nH]c2c(-c3ccc(F)cc3)c(-c3ccncc3)c(-c3ccc(F)cc3)nc12 [Example 39, 5,7-Bis-(4-fluoro-phenyl)-6-pyridin-4-yl-1H-pyrazolo[4,3-b]pyridine-3-carboxylic acid methyl ester] | > 50% |
| COCCCNc1nccc(-c2cc3c(C)noc3nc2-c2ccc(F)cc2)n1 [Example 41, {4-[6-(4-Fluoro-phenyl)-3-methyl-isoxazolo[5,4-b]pyridin-5-yl]-pyrimidin-2-yl}-(3-methoxy-propyl)-amine] | > 50% |
| Cc1nsc2nc(-c3ccc(F)cc3)c(-c3ccnc(NCC4CC4)n3)cc12 [Example 43, Cyclopropylmethyl-{4-[6-(4-fluoro-phenyl)-3-methyl-isothiazolo[5,4-b]pyridin-5-yl]-pyrimidin-2-yl}-amine] | > 50% |
| Cc1nsc2nc(-c3ccc(F)cc3)c(-c3ccnc(N[C@@H](C)c4ccccc4)n3)cc12 [Example 45, (S)-{4-[6-(4-Fluoro-phenyl)-3-methyl-isothiazolo[5,4-b]pyridin-5-yl]-pyrimidin-2-yl}-(1-phenyl-ethyl)-amine] | > 50% |
| COc1ccc(-c2nc3cc[nH]c3cc2-c2ccnc(NCC3CC3)n2)cc1 [Example 46, Cyclopropylmethyl-{4-[5-(4-methoxy-phenyl)-1H-pyrrolo[3,2-b]pyridin-6-yl]-pyrimidin-2-yl}-amine] | > 50% |
| COc1ccc(-c2nc3cc[nH]c3cc2-c2ccnc(N[C@@H](C)c3ccccc3)n2)cc1 [Example 47, (S)-{4-[5-(4-Methoxy-phenyl)-1H-pyrrolo[3,2-b]pyridin-6-yl]-pyrimidin-2-yl}-(1-phenyl-ethyl)-amine] | > 50% |
| Cc1nc2cc(-c3ccnc(NCC4CC4)n3)c(-c3ccc(F)cc3)nc2s1 [Example 52, Cyclopropylmethyl-{4-[5-(4-fluoro-phenyl)-2-methyl-thiazolo[5,4-b]pyridin-6-yl]-pyrimidin-2-yl}-amine] | > 50% |

Next, values leading:

| inhibition at 1 µM | Structure (SMILES) |
| --- | --- |
| > 50% | CCN(CC(=O)OC)Cc1cc2nc(-c3ccc(F)cc3)c(-c3ccncc3)c(-c3ccc(F)cc3)c2n1C [Example 35, {[5,7-Bis-(4-fluoro-phenyl)-1-methyl-6-pyridin-4-yl-1H-pyrrolo[3,2-b]pyridin-2-ylmethyl]-N-ethyl-amino}-acetic acid methyl ester] |
| > 50% | Cn1ccc2nc(-c3ccc(F)cc3)c(-c3ccncc3)c(-c3ccc(F)cc3)c21 [Example 37, 5,7-Bis-(4-fluoro-phenyl)-1-methyl-6-pyridin-4-yl-1H-pyrrolo[3,2-b]pyridine] |
| > 50% | Cc1noc2nc(-c3ccc(F)cc3)c(-c3ccnc(NCC4CC4)n3)cc12 [Example 40, Cyclopropylmethyl-{4-[6-(4-fluoro-phenyl)-3-methyl-isoxazolo[5,4-b]pyridin-5-yl]-pyrimidin-2-yl}-amine] |
| > 50% | Cc1noc2nc(-c3ccc(F)cc3)c(-c3ccnc(N[C@@H](C)c4ccccc4)n3)cc12 [Example 42, (S)-{4-[6-(4-Fluoro-phenyl)-3-methyl-isoxazolo[5,4-b]pyridin-5-yl]-pyrimidin-2-yl}-(1-phenyl-ethyl)-amine] |
| > 50% | COCCCNc1nccc(-c2cc3c(C)nsc3nc2-c2ccc(F)cc2)n1 [Example 44, {4-[6-(4-Fluoro-phenyl)-3-methyl-isothiazolo[5,4-b]pyridin-5-yl]-pyrimidin-2-yl}-(3-methoxy-propyl)-amine] |
| > 50% | Fc1ccc(-c2nc3cn[nH]c3c(-c3ccc(F)cc3)c2-c2ccncc2)cc1 [Example 53, 5,7-Bis-(4-fluoro-phenyl)-6-pyridin-4-yl-1H-pyrazolo[4,3-b]pyridine] |
| > 50% | O=C(NCCO)c1n[nH]c2c(-c3ccc(F)cc3)c(-c3ccncc3)c(-c3ccc(F)cc3)nc12 [Example 54, 5,7-Bis-(4-fluoro-phenyl)-6-pyridin-4-yl-1H-pyrazolo[4,3-b]pyridine-3-carboxylic acid (2-hydroxy-ethyl)-amide] |
| > 50% | Cc1nc2cc(-c3ccnc(N[C@@H](C)c4ccccc4)n3)c(-c3ccc(F)cc3)nc2s1 [Example 56, (S)-{4-[5-(4-Fluoro-phenyl)-2-methyl-thiazolo[5,4-b]pyridin-6-yl]-pyrimidin-2-yl}-(1-phenyl-ethyl)-amine] |
